Reference: publication PMC5357639 (Frontiers in Chemistry, 2017)
Where a SMILES comes first, the peptide text is derived from it. The star is where a group is joined. Orn(α-tetramethylguanidino) = CN(C)C(=N[C@@H](CCCN)C(=O)*)N(C)C

Tests used:
[1] = in vivo; design: species or system NMRI mice; settings: mouse, ip; for C0: c0 (initial concentration at time point 0 min)
Text: (§1) A protocol to quantify Api88, Api137, and their major metabolites was established analog to that of oncocin derivatives, reported recently (Schmidt et al., [2016]). Briefly, an Alliance® 2695 HPLC system was coupled online to an ESI-QqLIT-MS (4,000 QTRAP®) equipped with a TurboV™ ion-spray source and operated in positive ion MRM mode using the Analyst® 1.6 software. Separation was achieved on a Jupiter C18-column (internal diameter 1 mm, length 150 mm, particle size 5 μm, pore size 300 Å) at 55 °C using a linear 5-min gradient from 2.7 to 20.7% aqueous acetonitrile containing ammonium formate (26 mmol/L, pH 3.0). Further details about instrumentation, MRM optimization, and MS settings are provided as Supplementary Material (Tables S1–S4, Method M1).
(§2) Female NMRI mice (8–9 weeks, 25–35 g) were injected intraperitoneally (10 mL/kg) with peptides dissolved in sterile PBS (Gibco® Life Technologies™, Darmstadt, Germany) at concentrations of 0.5 or 2 g/L corresponding to doses of 5 or 20 mg/kg body weight, respectively. After 10, 20, 30, 60, or 90 min animals (n = 7) were euthanized by carbon dioxide inhalation and terminal bleeding via cardiac puncture. Lithium-heparin plasma (n = 7) was prepared and stored at −80°C. Immediately after the final bleed, mice were perfused through the left ventricle with saline (0.9%, 50 mL, ~3 min) to remove blood from all organs controlled by discoloration of the liver. Organs were removed aseptically and directly frozen in liquid nitrogen. Spontaneously released urine was collected and frozen immediately at −80°C.
(§3) Method M1: M ultiple reaction monitoring (MRM) transitions for apidaecin peptides Peptides (1 µ g/ m L ) were dissolved inaqueous acetonitrile (25% or 60% v/ v) containing either formate buffer (26 mmol/ L, pH 2.6, 3.0, 3.3 or 3.9 ) or formic acid (0.1% v/v ) and infused (flow rate 5 µ L/min, PHD 2600 s yringe pump) into the ES I-Q q L IT -MS (4000 QTRAP®) to optimize buffer composition and MRM. Transitions were selected from the tandem mass spectra (MS/MS) and confirmed on an ESI-QqTOF-MS (QSTAR® pulsar I) providing higher mass resolutions and mass accuracies than the QTRAP ®. The settings for declustering potential (DP), collision potential (CE), and collision cell exit potential (CXP) were optimized by ramping the respective pot entials using the compound optimization tool of the Anal yst® software.
(§4) Method M2: Sample preparation
(§5) Frozen organs (5 per group) wer e homogenized in sterile PBS (500 µ L) containing Protease Inhibitor Mix M (1% v/v; SERVA Electrophoresis GmbH, Heidelberg, German y) using an Ultra-Turr ax ® T25 basic (IKA-Werke, Staufen, German y, rotational speed 21,500 min-1) for 1 min. Homogenates were sonicated on ice (35% amplitude, mode: 5 s on; 5 s off for 1 min; Vibra-cell™ 75041, Thermo Fisher Scientific) to disrupt cells. After centrifugation (15 min, 21,460 x g, 4°C) the supernatants were stored at - 80°C.
(§6) Aliquots of plasma (10 µL) or liver (10 µ L), kidney (50 µ L), and brain hom ogenates (100 µ L) were spiked with isotope -labeled Api88, Api137, Api1- 16, and Api1- 17 (2.5 µ g/ m L). The samples were diluted fourfold with aqueous phosphoric acid (3.4% v/v), loaded on an Oasis H LB 9 6 -well solid phase extraction (SPE) plate (5 mg sorbent, Waters ), washed with aqueous methanol (0.3 m L, 5% v/ v), eluted with methanol (0.3 m L), and dried in a vacuum centrifuge (30 °C; SpeedVac, Eppendorf ). The samples were dissolved prior analysis in aqueous acetonitrile (3% v/v) containing formic acid (0.1 % v/v).
(§7) Stock solutions (1 g/L) of the peptides and their corresponding isotope-labelled internal standards were prepared and diluted in water. Calibration and validation mixtures (10 µL) of unlabeled (0.025, 0.1, 0.5 or 2.5 µg/m L) and isotope-labeled peptides ( 2.5 µ g/ m L ) w ere mix ed with plasma or organ homogenates (10 to 100 µL) obtained from untreated animals fo r […]
(§8) Limits of detection (LOD) and quantification (LOQ) corresponded to the lowest peptide […]

[2] = in vivo; design: species or system CD-1 mice; settings: iv; for level at 5 min: female, CD-1, mouse, 5 mg/kg; for Time within which peptide is cleared: mouse
Text: as §1
Female CD-1 mice (20–23 g weight, 7 weeks) were injected intravenously (10 mL/kg) in the tail vein with peptides (0.5 g/L) dissolved in sterile saline (0.9%, w/v) corresponding to doses of 5 mg/kg body weight. Animals (n = 4 per time point and peptide) were euthanized 5, 10, 20, 40, and 60 min post-injection by carbon dioxide inhalation and exsanguination. For further details of sample preparation and recovery experiments see Supplementary Material (Methods M2, M3).
as §3, §4
Frozen organs (5 per group) wer e homogenized in sterile PBS (500 µ L) containing Protease Inhibitor Mix M (1% v/v; SERVA Electrophoresis GmbH, Heidelberg, German y) using an Ultra-Turr ax ® T25 basic (IKA-Werke, Staufen, German y, rotational speed 21,500 min-1) for 1 min. […]
Limits of detection (LOD) and quantification (LOQ) corresponded to the lowest peptide concentrations in water, plasma, or homogenates of brain, liver , and kidney providing a peak height exceeding the noise in the retention time window at least threefol d (LOD) or ten times (LOQ). Recover y r ates o f SPE and matrix effects were determined b y the p eak areas of spiked

[3] = Organ distribution (blood, kidney, liver and brain homogenates, urine) after intraperitoneal administration; assay type: in vivo, NMRI mice; settings: for Peptide level in brain homogenates (not detected, less than LOD) / Concentration in urine / Peptide level in brain (not detected, LOD converted to brain weight) / Recovered peptide amount in kidneys of treated animals / Recovery rate in blood relative to the injected peptide amount: mouse, in vivo, ip
Text: as §1, §2, §3, §4, §5, §6, §7, §8

Structure (SMILES)	AUC(0-inf) ([1]; female, NMRI, 5 mg/kg) [µg·h/mL]	Cmax ([1]; female, NMRI, 5 mg/kg) [µg/mL]	MRT ([1]; female, NMRI, 5 mg/kg) [min]	clearance ([1]; female, NMRI, 5 mg/kg) [mL/min]	half-life ([1]; female, NMRI, 5 mg/kg) [min]	C0 ([1]; female, NMRI, 5 mg/kg) [µg/mL]	AUC(0-inf) ([1]; female, NMRI, 20 mg/kg) [µg·h/mL]	Cmax ([1]; female, NMRI, 20 mg/kg) [µg/mL]	MRT ([1]; female, NMRI, 20 mg/kg) [min]	clearance ([1]; female, NMRI, 20 mg/kg) [mL/min]	half-life ([1]; female, NMRI, 20 mg/kg) [min]	Time within which peptide is cleared [1]	AUMC0 → ∞ ([1]; 5 mg/kg) [μg^*min^2*mL^−^1]	Detection in plasma ([1]; 5 mg/kg)	Volume of distribution ([1]; 5 mg/kg) [mL]	k (elimination constant) ([1]; 5 mg/kg) [min^−^1]	AUMC0 → ∞ ([1]; 20 mg/kg) [μg^*min^2*mL^−^1]	Volume of distribution ([1]; 20 mg/kg) [mL]	c0 (initial concentration at time point 0 min) ([1]; 20 mg/kg) [µg/mL]	k (elimination constant) ([1]; 20 mg/kg) [min^−^1]	also measured
CC[C@H](C)[C@H](NC(=O)[C@H](Cc1ccc(O)cc1)NC(=O)[C@@H](NC(=O)[C@@H]1CCCN1C(=O)[C@H](CCCNC(=N)N)NC(=O)[C@H](CC(N)=O)NC(=O)[C@H](CC(N)=O)NC(=O)[C@H](CCCN)N=C(N(C)C)N(C)C)C(C)C)C(=O)N1CCC[C@H]1C(=O)N[C@@H](CCCNC(=N)N)C(=O)N1CCC[C@H]1C(=O)N[C@@H](CCCNC(=N)N)C(=O)N1CCC[C@H]1C(=O)N1CCC[C@H]1C(=O)N[C@@H](Cc1c[nH]cn1)C(=O)N1CCC[C@H]1C(=O)N[C@@H](CCCNC(=N)N)C(=O)N[C@@H](CC(C)C)C(N)=O [Api88] ({Orn(α-tetramethylguanidino)}-NNRPVYIPRPRPPHPRL-NH2)	0.355	0.6	30.5	6.4	17.3	1	1.9	4.1	23.9	5.4	11.1	~ 90 min	650	undetectable	137	0.040	2730	100	6.2	0.062	c0 (initial concentration at time point 0 min) ([1]; 5 mg/kg): 1 µg/mL; level at 5 min [2]: 1 µg/mL; Time within which peptide is cleared [2]: ~ 60 min; Peptide level in brain homogenates (not detected, less than LOD) ([3]; female, NMRI): < 43 ng/mL homogenate; Concentration in urine ([3]; female, NMRI, 20 mg/kg): ~ 0.2 μg/mL; Peptide level in brain (not detected, LOD converted to brain weight) [3]: < 89 μg/g brain; Recovered peptide amount in kidneys of treated animals [3]: 1.8 µg/g; Recovery rate in blood relative to the injected peptide amount [3]: below 1%; Concentration in urine ([3]; 5 mg/kg): below LOD
CC[C@H](C)[C@H](NC(=O)[C@H](Cc1ccc(O)cc1)NC(=O)[C@@H](NC(=O)[C@@H]1CCCN1C(=O)[C@H](CCCNC(=N)N)NC(=O)[C@H](CC(N)=O)NC(=O)[C@H](CC(N)=O)NC(=O)[C@H](CCCN)N=C(N(C)C)N(C)C)C(C)C)C(=O)N1CCC[C@H]1C(=O)N[C@@H](CCCNC(=N)N)C(=O)N1CCC[C@H]1C(=O)N[C@@H](CCCNC(=N)N)C(=O)N1CCC[C@H]1C(=O)N1CCC[C@H]1C(=O)N[C@@H](Cc1c[nH]cn1)C(=O)N1CCC[C@H]1C(=O)N[C@@H](CCCNC(=N)N)C(=O)N[C@@H](CC(C)C)C(=O)O [Api137] ({Orn(α-tetramethylguanidino)}-NNRPVYIPRPRPPHPRL-OH)	0.16	0.2	54.9	15.1	33.8	0.2	1.2	3.6	21	8.4	16.9	~ 90 min	1512	still detected	659	0.020	524	77	7.8	0.041	c0 (initial concentration at time point 0 min) ([1]; female, NMRI, 5 mg/kg): 0.22 µg/mL; t1/2 (elimination half life time) ([1]; 20 mg/kg): 17 min; level at 5 min [2]: 0.4 µg/mL; Time within which peptide is cleared [2]: ~ 60 min; Kidney concentration estimated from detected peptide amount ([3]; estimating the volume of both kidneys as 0.5 mL): 4.8 µg/mL; Peptide level in brain homogenates (not detected, less than LOD) ([3]; female, NMRI): < 18 ng/mL homogenate; Peptide level in brain (not detected, LOD converted to brain weight) [3]: < 37 μg/g brain; Recovered peptide amount in kidneys of treated animals [3]: 2.4 µg/g; Recovery rate in blood relative to the injected peptide amount [3]: below 1%
